The target of one data set is GSK 3α (Homo sapiens (Human), UniProt P49840). Briefly: GSK 3α enzyme inhibition (Z-LYTE FRET, Method 1 / Method 2). The conditions noted are these: read-out: IC50 Values for Enzyme Inhibition GSK3α. In kind it is biochemical. As for the experimental part:
The enzyme inhibitory activities of compounds disclosed herein are determined by FRET using synthetic peptides labelled with both donor and acceptor fluorophores (Z-LYTE, Invitrogen Ltd., Paisley, UK).
The following two assay variants can be used for determination of GSK 3α inhibition.
The inhibitory activities of compounds of the invention against the GSK 3α enzyme isoform (Invitrogen), are evaluated by determining the level of activation/phosphorylation of the target peptide. The GSK3-α protein (500 ng/mL, 2.5 μL) is mixed with the test compound (2.5 μL at either 4 μg/mL, 0.4 μg/mL, 0.04 μg/mL, or 0.004 μg/mL) for 2 hr at RT. The FRET peptide (8 μM, 2.5 μL), which is a phosphorylation target for GSK3α, and ATP (40 μM, 2.5 μL) are then added to the enzyme/compound mixture and the resulting mixture incubated for 1 hr. Development reagent (protease, 5 μL) is added for 1 hr prior to detection in a fluorescence microplate reader (Varioskan® Flash, ThermoFisher Scientific).
In all cases, the site-specific protease cleaves non-phosphorylated peptide only and eliminates the FRET signal. Phosphorylation levels of each reaction are calculated using the ratio of coumarin emission (donor) over fluorescein emission (acceptor), for which high ratios indicate high phosphorylation and low ratios indicate low phosphorylation levels. […]

The nature of data set [1]: Hydrolytic stability study. In kind it is physicochemical. The note with it: DMSO and water (3:1), 1 mg/mL, 60° C. As to the method:
Chemical stability of compounds of the invention was assessed in a mixture of DMSO and water (3:1) at a test compound concentration of 1 mg/mL
Sample Preparation • A 1.0 mg sample of test compound was dissolved in 750 μL of DMSO. Water (250 μL) was added slowly, ensuring no precipitation occurred.
Recording Stability • A 50 μL aliquot of the test solution was removed and analysed in duplicate by 5 μL HPLC injections. The peak area for the test compound was recorded following manual integration of the corresponding UV trace. • The test solution was heated to 60° C., with stirring, and 50 μL aliquots removed for HPLC analysis at 5 and 24 h timepoints.

From patent US9790174B2, “Kinase inhibitors” (Respivert Limited, priority 2013, dated 2017) come the findings set out here.

GSK 3α, sequence (P49840 whole entry): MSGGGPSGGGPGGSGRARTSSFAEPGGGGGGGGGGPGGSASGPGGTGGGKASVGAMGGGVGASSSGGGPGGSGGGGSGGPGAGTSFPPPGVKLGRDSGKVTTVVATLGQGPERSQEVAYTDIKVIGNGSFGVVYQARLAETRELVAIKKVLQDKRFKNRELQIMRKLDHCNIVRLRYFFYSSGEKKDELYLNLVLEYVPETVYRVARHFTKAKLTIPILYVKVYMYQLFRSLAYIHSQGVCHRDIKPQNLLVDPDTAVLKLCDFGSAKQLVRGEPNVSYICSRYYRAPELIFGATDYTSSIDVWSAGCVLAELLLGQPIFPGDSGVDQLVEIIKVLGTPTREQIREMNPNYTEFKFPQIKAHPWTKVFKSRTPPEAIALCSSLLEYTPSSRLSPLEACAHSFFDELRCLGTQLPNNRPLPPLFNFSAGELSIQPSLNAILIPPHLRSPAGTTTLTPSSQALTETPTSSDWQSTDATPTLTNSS

For `COc1cc(Nc2cc(Oc3ccc(NC(=O)Nc4cc(C(C)(C)C)cc(NS(C)(=O)=O)c4OC)c4ccccc34)ccn2)cc(C(=O)NCCN2CCNCC2)c1` [Example 85(q)], on GSK 3α, the IC50 came out at 249 nM.

In the case of `C#Cc1cc(Nc2nccc(Oc3ccc(NC(=O)Nc4cc(C(C)C)nn4-c4ccc(C)cc4)c4ccccc34)n2)cc(C(=O)NCCN2CCOCC2)c1` [Reference Compound B, 3-ethynyl-5-((4-((4-(3-(3-isopropyl-1-(p-tolyl)-1H-pyrazol-5-yl)ureido)naphthalen-1-yl)oxy)pyrimidin-2-yl)amino)-N-(2-morpholinoethyl)benzamide], the decomposition result in data set [1] is recorded as “underwent substantial decomposition”.
